These results are taken from PubChem BioAssay (NCI).

Some test systems named below: K-562 leukemia; UACC-257 melanoma; SK-MEL-28 melanoma; MOLT-4 leukemia; SN12C renal; UACC-62 melanoma; UO-31 renal; HOP-62 NSCLC; SNB-19 CNS; SK-MEL-2 melanoma; IGROV1 ovarian; SF-539 CNS; HCT-116 colon; HCC-2998 colon; PC-3 prostate; MDA-MB-231 breast; BT-549 breast; NCI/ADR-RES ovarian; HS 578T breast.
Common to all, as to experiment: NCI-60 cell line screen, 48 h

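A five-concentration, 48-hour dose response in 96-well plates underlies each endpoint, interpolated linearly between surrounding concentrations. TGI denotes the concentration required for complete inhibition of growth.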 Bounds are passed on as bounds.

As to `O=C1C2CN(Cc3ccccc3)CC1CN(CC1CC1)C2`, the TGI in the assay with K-562 leukemia, in the assay with UACC-257 melanoma, with SK-MEL-28 melanoma, in the assay on MOLT-4 leukemia, in the assay on SN12C renal and in the assay on UACC-62 melanoma was > 100 µM in each case. For the same compound, the TGI in the assay with UO-31 renal, with HOP-62 NSCLC, in the assay with SNB-19 CNS, in the assay with SK-MEL-2 melanoma, with IGROV1 ovarian and in the assay on SF-539 CNS was > 100 µM in each case.
With `CN1Cc2cc3c(cc2-c2ccccc21)OCO3`, the TGI in the assay on K-562 leukemia, in the assay on UACC-257 melanoma, with SK-MEL-28 melanoma, in the assay on HCT-116 colon, in the assay with MOLT-4 leukemia and in the assay on HCC-2998 colon was > 100 µM throughout. Also, the TGI with SN12C renal, in the assay on UACC-62 melanoma, with UO-31 renal, in the assay with SNB-19 CNS, with SK-MEL-2 melanoma and in the assay on IGROV1 ovarian was > 100 µM in each case. In addition, the TGI in the assay on SF-539 CNS is > 100 µM.
As for `COc1c(C)cc2c(c1O)C1NC(C2)[C@H](O)N2C3COC(=O)[C@@]4(CS[C@@H](c5c(OC(C)=O)c(C)c6c(c53)OCO6)C12)NCCC1=C4NC2C=CC=CC12` (stereo not given in full), the TGI was 0.0202 µM in the assay with K-562 leukemia; < 0.01 µM with SK-MEL-28 melanoma; < 0.01 µM with MOLT-4 leukemia; < 0.01 µM in the assay with HCC-2998 colon; 0.0365 µM in the assay on SN12C renal; < 0.01 µM in the assay with UACC-62 melanoma. In addition, the TGI with UO-31 renal is 0.0342 µM; in the assay on HOP-62 NSCLC, < 0.01 µM; in the assay with SK-MEL-2 melanoma it was < 0.01 µM; in the assay on IGROV1 ovarian it was < 0.01 µM.
Take `COC1O[C@H]2[C@H]3[C@@H]1[C@@H](OS(=O)(=O)c1ccc(C)cc1)C(=O)N3C[C@H]2O` (stereo not given in full): the TGI with K-562 leukemia, in the assay on UACC-257 melanoma, in the assay with SK-MEL-28 melanoma, in the assay with PC-3 prostate, in the assay on HCT-116 colon and in the assay with MOLT-4 leukemia was > 100 µM each time. The TGI with HCC-2998 colon, in the assay on MDA-MB-231 breast, in the assay on UACC-62 melanoma, in the assay on UO-31 renal, in the assay on HOP-62 NSCLC and in the assay on SNB-19 CNS was > 100 µM throughout. The TGI in the assay on BT-549 breast, in the assay on SK-MEL-2 melanoma, in the assay with NCI/ADR-RES ovarian and in the assay on SF-539 CNS was > 100 µM each time.
As to `N#Cc1nc(C(CO)N(Cc2ccccc2)C(=O)O)oc1N` (stereo not given), the TGI in the assay on K-562 leukemia, in the assay on UACC-257 melanoma, in the assay on SK-MEL-28 melanoma, in the assay on PC-3 prostate, with HCT-116 colon and in the assay on MOLT-4 leukemia was > 100 µM each time. For the same compound, the TGI in the assay on HCC-2998 colon, in the assay on SN12C renal, with MDA-MB-231 breast, with UACC-62 melanoma, in the assay on UO-31 renal and in the assay on HOP-62 NSCLC was > 100 µM throughout. For the same compound, the TGI in the assay with BT-549 breast, with SK-MEL-2 melanoma, in the assay on NCI/ADR-RES ovarian, with IGROV1 ovarian and with SF-539 CNS was > 100 µM each time.
Take `O=[N+]([O-])c1c(C=Nc2ccccc2)oc(-c2ccc3c(c2)OCO3)c1-c1ccc2c(c1)OCO2`: the TGI in the assay on K-562 leukemia, in the assay on UACC-257 melanoma, in the assay with SK-MEL-28 melanoma, with HCT-116 colon, with MOLT-4 leukemia and with HCC-2998 colon was > 100 µM each time. For the same compound, the TGI in the assay on SN12C renal, in the assay with UACC-62 melanoma, in the assay on UO-31 renal, in the assay with HOP-62 NSCLC, with SNB-19 CNS and in the assay on IGROV1 ovarian was > 100 µM in each case. Moreover, the TGI in the assay with SF-539 CNS was > 100 µM.
`CCOP(=O)(OCC)C(C(=O)OC)C(=O)C(=O)Nc1c(C)cc(Br)cc1C` (stereo not given): the TGI with K-562 leukemia, in the assay with UACC-257 melanoma, in the assay with SK-MEL-28 melanoma, in the assay on HCT-116 colon, in the assay with MOLT-4 leukemia and with HCC-2998 colon was > 100 µM in each case. The TGI in the assay with SN12C renal, in the assay on UACC-62 melanoma, in the assay on UO-31 renal, with HOP-62 NSCLC, in the assay with SNB-19 CNS and with SK-MEL-2 melanoma was > 100 µM in each case. Further, the TGI with IGROV1 ovarian and in the assay on SF-539 CNS was > 100 µM in each case.
In the case of `CCCCCCCC(=O)OCC1OC(OC)C(NC(=O)N(CCCl)N=O)C(O)C1O` (stereo not given), the TGI with K-562 leukemia is > 58 µM; with UACC-257 melanoma it was 41.3 µM; in the assay with SK-MEL-28 melanoma, > 100 µM; in the assay with HCT-116 colon it was 15 µM; with MOLT-4 leukemia, 36.1 µM; in the assay with HCC-2998 colon, 30.3 µM. Moreover, the TGI in the assay with SN12C renal was 26.6 µM; with UACC-62 melanoma, 14 µM; with UO-31 renal, 45.9 µM; with HOP-62 NSCLC, 23.1 µM; in the assay with SNB-19 CNS, > 100 µM; with SK-MEL-2 melanoma, > 57.2 µM. In addition, the values for the TGI in the assay with IGROV1 ovarian and in the assay with SF-539 CNS were 67.1 µM and 16.5 µM, respectively.
`CC(C)N1CN(C(C(=O)N[C@@H]2C(=O)N3C2SC(C)(C)C3C(=O)O)c2ccc(O)cc2)CSC1=S` (stereo not given in full): the TGI in the assay on K-562 leukemia, in the assay on UACC-257 melanoma, in the assay on SK-MEL-28 melanoma, in the assay with HCT-116 colon, in the assay on MOLT-4 leukemia and with SN12C renal was > 100 µM in each case. Also, the TGI in the assay with UACC-62 melanoma, with UO-31 renal, in the assay on HOP-62 NSCLC, in the assay on SNB-19 CNS, in the assay with SK-MEL-2 melanoma and in the assay on IGROV1 ovarian was > 100 µM throughout. The TGI with SF-539 CNS is > 100 µM.
For `Cc1nc(C(N)=S)sc1C(=O)CC(=O)C(=O)Nc1nc2ccccc2[nH]1`, the TGI in the assay on K-562 leukemia, with UACC-257 melanoma, in the assay with HS 578T breast, in the assay on SK-MEL-28 melanoma, with PC-3 prostate and in the assay on HCT-116 colon was > 100 µM throughout. Besides, the TGI in the assay on MOLT-4 leukemia, with HCC-2998 colon, with SN12C renal, in the assay with MDA-MB-231 breast, with UACC-62 melanoma and with UO-31 renal was > 100 µM in each case. The TGI in the assay on HOP-62 NSCLC, in the assay on BT-549 breast, in the assay on SK-MEL-2 melanoma, in the assay on NCI/ADR-RES ovarian, in the assay with IGROV1 ovarian and in the assay with SF-539 CNS was > 100 µM throughout.
